Experiment [1] concerns IGFBP‐3 interaction with importin‐β1. The conditions noted are these: in vitro; cited from earlier work. The source says: (§1) Humanin (HN), first discovered by the Nishimoto laboratory, is a mitochondrial‐derived peptide known to bind with high affinity and specificity to the 18‐amino acid residue (215–232) heparin‐binding domain of IGFBP‐3 [54] that also binds HA.
The next experiment relates to amyloid‐β. The conditions noted are these: aggregation induced by acetylcholinesterase; cited from earlier work.
From the text: as §1

For experiment [2] the following is noted: after reduction; cited from earlier work. The source says:
We next tested whether reduction of CD44 affects its ability to compete with IGFBP‐3 for binding HA. […] Reduction of this bond inhibited HA‐CD44 interaction in vitro, and the ability of cells to adhere to HA‐coated surfaces was blocked by pretreatment with reducing agents. Moreover, reductio ...

Experiment [3] deals with HFL1 normal human fibroblast cells (CD44-negative). Nature of the experiment: MTT cell viability, HFL1. The experiment is classed as cell-based. Particulars: protein 50 nM, 48 h, with or without 5F12. As to the method: (§2) HFL1 (ATCC CCL‐153) normal, nontransformed, and nontumorigenic human fibroblast cell line and the human NSCLC cell line, A549 (ATCC CCL‐185), were purchased from the American Type Culture Collection (ATCC, Manassas, VA, USA). Cells were seeded as we reported earlier in 5 mL HyClone Dulbecco's modified Eagle's medium/nutrient mixture F‐12 (DMEM/F12) (GE Healthcare Life Sciences, Pittsburgh, PA, USA), supplemented with 10% Fetalgro bovine growth serum (FBS; RMBIO, Missoula, MT, USA), 50 U·mL^−1 penicillin, and 50 U·mL^−1 streptomycin (Invitrogen Life Technologies, Carlsbad, CA, USA) in 25‐cm^2 tissue culture flasks, and allowed to grow overnight in an incubator at 37 °C, 95% humidity, and 5% CO2. Cells were counted with a hemocytometer after trypan blue staining.
(§3) The MTT reduction assay (Sigma‐Aldrich), used to measure cell viability, was employed as we reported earlier. […] The absorbance was measured at 570 nm in a plate reader. […]
(§4) (A) IGFBP‐3 peptides (50 nM each) were bound to the ELISA plate wells, and then, 200 nM biotin‐HA was added and processed as described in the Materials and methods section. The data were normalized to the control incubated with BSA (control 1), and fold change relative to the control was calculated. […] Cell viability was assessed by the MTT assay. […]

For experiment [4], the system named is A549 human NSCLC cells (CD44-expressing). Nature of the experiment: MTT cell viability, A549. Particulars: protein 50 nM, 48 h, with or without 5F12. The experiment is classed as cell-based. The protocol: as §2, §3, §4
Experiment [5] deals with binding of biotin‐HA to immobilized IGFBP‐3. Description: ELISA, competition of CD44 with IGFBP-3 for binding HA. The conditions noted are these: for IC50: 10 nM glycosylated IGFBP-3 coated, biotin-HA 100 nM incubated 1 h with CD44 0–1000 nM, mean ± SD of three independent experiments in triplicate, read-out: concentration of CD44 that produced 50% of maximum binding (50% inhibition of biotin-HA binding to IGFBP-3). On the set-up: species or system human. As to the method:
ELISA was conducted as we reported previously. Nunc MaxiSorp 96‐well flat‐bottom plates (Thermo Fisher, Waltham, MA, USA) were coated with samples as indicated. The plates were incubated overnight at 4 °C on a shaker to allow binding of the samples to the plate wells. After the incubation, the wells were washed 4× with TBST, filled with 400 µL blocking buffer (110 mM KCl, 5 mM NaHCO3, 5 mM MgCl2, 1 mM EGTA, 0.1 mM CaCl2, 20 mM HEPES, 1% BSA, pH 7.4), and incubated overnight at 4 °C on a shaker. The wells were then washed 4× with TBST, and 100 µL of sample at the desired concentration was added to each well before incubating overnight at 4 °C on a shaker. TBST was then used to wash the wells 4× before proceeding in one of two ways: (a) Biotinylated samples were analyzed by adding 100 µL streptavidin–HRP conjugate in TBST (1 : 2500 dilution) to the samples before incubating for 3 h at RT on a shaker, or (b) samples without biotin were analyzed by adding 100 µL TBST containing the primary antibody at the manufacturer's recommendation and incubating for 3 h at RT on a shaker before washing 4× with TBST. The secondary antibody in 100 µL TBST was then added to the samples following the manufacturer's recommendation and incubated for 1 h at RT on a shaker. Plates containing either biotinylated or nonbiotinylated samples were then washed 5× with TBST followed by the addition of 100 µL TMB resulting in a blue color change. The reaction was stopped with 100 µL 2 M H2SO4 after incubating at RT for 0.5–15 min, resulting in a yellow color change that was measured by absorbance at 450 nm. To monitor nonspecific binding, negative control wells on the plates included, for example, bound IGFBP‐3 then adding all components, streptavidin–horseradish peroxidase and TMB, but without addition of biotin‐HN. Some wells were coated with 2.5, 10, 50, 100, 500, and 5000 nM biotin‐HN or biotin‐HA to allow conversion of the OD measurements to concentrations of bound material. Before analysis, the OD from the data was corrected for nonspecific binding by subtracting the mean background absorbance for the negative controls. Typically, in control wells incubated on each plate, the background binding is about 10–15% of the maximum binding seen with addition of biotin‐HN or biotin‐HA or antibodies. Statistical analysis was determined by the GRAPHPAD PRISM 8.4.2 software (San Diego, CA, USA). Data were expressed as the mean ± SD. Three to five independent experiments were carried out in triplicate for each assay condition.
Glycosylated recombinant His‐tagged IGFBP‐3 (Speed BioSystems) and nonglycosylated recombinant IGFBP‐3 (MyBioSource, San Diego, CA, USA) were used as reported earlier. Glycosylated human CD44 recombinant protein was purchased from Sino Biological (Wayne, PA, USA). To cleave N‐linked glycans, the proteins were treated with PNGase F for 4 h at 37 °C under nondenaturing conditions according to the manufacturer's specification. To reduce the proteins and following previous protocols, the purified proteins were reduced with TCEP‐HCl (2.5 mM in PBS/1%BSA for 20 min at 4 °C) and then alkylated by 5 mM NEM for 30 min at 4 °C, to permanently block disulfide bond formation. As control, nonreduced samples treated with only 5 mM NEM were used. […]

Ends that are not written are not given here.

For “HN: mitochondrial-derived peptide binding the 18-amino acid residue (215–232) heparin-binding domain of IGFBP-3 (MAPRGFSCLLLLTSEIDLPVKRRA-NH2; UniProt Q8IVG9 1-24, looked up)”, in experiment [1], the “effect on IGFBP-3–importin-β1 interaction (in words)” value is on record as “blocks its interaction with importin‐β1 in vitro”. Moreover, in the experiment on amyloid‐β, the “effect on amyloid-β aggregation (in words)” value is “aggregation of amyloid‐β induced by acetylcholinesterase is blocked by the presence of HN”.

Turning to “recombinant soluble CD44: recombinant soluble CD44 of ref 47”, the “effect of reduction on ability of CD44 to bind HA (in words)” value in experiment [2] is reported as “inhibit its ability to bind HA”.

Take “glycosylated IGFBP‐3 protein: Glycosylated recombinant His-tagged IGFBP-3 (Speed BioSystems)”: the “HFL1 cell viability, IGFBP-3 proteins (in words)” value in experiment [3] is listed as “lack of effect”. Further, the “A549 cell viability, IGFBP-3 proteins (in words)” value in experiment [4] is reported as “a comparable decrease in A549 cell viability”.

As to “CD44 Glycosylated/Reduced: glycosylated CD44, reduced with TCEP-HCl then alkylated by NEM”, the IC50 in experiment [5] was determined as 210 ± 41 nM.

As for “CD44 Glycosylated: Glycosylated human CD44 recombinant protein (Sino Biological)”, the IC50 in experiment [5] was 128 ± 24 nM.

On to “CD44 Nonglycosylated/Reduced: PNGase F treated CD44, reduced with TCEP-HCl then alkylated by NEM”, for which the IC50 in experiment [5] was found to be 176 ± 37 nM.

With “CD44 Nonglycosylated: human recombinant CD44 treated with PNGase F to cleave N-linked glycans”, the “ability of CD44 to block HA-IGFBP-3 interaction (in words)” value in experiment [5] (10 nM IGFBP-3 coated, biotin-HA 100 nM) is listed as “more efficient at inhibiting the binding of biotin‐HA to immobilized IGFBP‐3 than glycosylated CD44”. Moreover, the IC50 in experiment [5] amounted to 9 ± 2 nM.

With “nonglycosylated IGFBP‐3 protein: nonglycosylated recombinant IGFBP-3 (MyBioSource)”, the “HFL1 cell viability, IGFBP-3 proteins (in words)” value in experiment [3] is “lack of effect”. Moreover, the “A549 cell viability, IGFBP-3 proteins (in words)” value in experiment [4] is “a comparable decrease in A549 cell viability”.
